How the values were obtained:
[1] = target: T1, Melanocyte-stimulating hormone receptor (Homo sapiens, UniProt Q01726); assay: Displacement of [125I]NDP-MSH from HEK293 cells expressing human melanocortin-1 receptor; format: cell-based
Target sequence in this assay (Q01726 whole entry): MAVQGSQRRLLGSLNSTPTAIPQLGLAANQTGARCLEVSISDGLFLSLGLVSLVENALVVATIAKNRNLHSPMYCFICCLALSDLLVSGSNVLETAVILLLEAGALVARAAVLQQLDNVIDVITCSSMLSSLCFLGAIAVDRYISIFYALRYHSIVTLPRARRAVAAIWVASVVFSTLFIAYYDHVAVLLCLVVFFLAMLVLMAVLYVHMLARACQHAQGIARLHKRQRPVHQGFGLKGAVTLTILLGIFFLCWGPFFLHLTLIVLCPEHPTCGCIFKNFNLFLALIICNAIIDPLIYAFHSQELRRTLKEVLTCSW

Melanocortin receptor 3 = Melanocortin receptor 3 (Homo sapiens, UniProt P41968); assay: Displacement of [125I]NDP-MSH from HEK293 cells expressing human melanocortin-3 receptor; format: cell-based
Melanocortin receptor 4 [2] = target: T2, Melanocortin receptor 4 (Homo sapiens, UniProt P32245); assay: Displacement of [125I]NDP-MSH from HEK293 cells expressing human melanocortin-4 receptor; format: cell-based
Melanocortin receptor 5 = Melanocortin receptor 5 (Homo sapiens, UniProt P33032); assay: Displacement of [125I]NDP-MSH from HEK293 cells expressing human melanocortin-5 receptor; format: cell-based
Melanocortin receptor 4 [3] = target: T2, Melanocortin receptor 4; assay: Effective concentration against cAMP release in CHO cells expressing human melanocortin-4 receptor; format: functional, cell-based
Melanocortin receptor 4 [4] = target: T2, Melanocortin receptor 4; assay: Effective concentration for cAMP release in HEK293 cells expressing human melanocortin-4 receptor; format: functional, cell-based
Melanocortin receptor 4 [5] = target: T2, Melanocortin receptor 4; assay: Percent intrinsic activity of alpha-MSH-stimulated cAMP level in HEK293 cells expressing human melanocortin-4 receptor; format: functional, cell-based
[6] = target: T1, Melanocyte-stimulating hormone receptor; assay: Displacement of [125I]NDP-MSH from human melanocortin-1 receptor expressed in HEK 293 cells at 10 uM; format: cell-based; conditions: HEK293
Target sequence in this assay (Q01726 whole entry, looked up): as the sequence (Q01726 whole entry) above

Melanocortin receptor 5, sequence (P33032 whole entry): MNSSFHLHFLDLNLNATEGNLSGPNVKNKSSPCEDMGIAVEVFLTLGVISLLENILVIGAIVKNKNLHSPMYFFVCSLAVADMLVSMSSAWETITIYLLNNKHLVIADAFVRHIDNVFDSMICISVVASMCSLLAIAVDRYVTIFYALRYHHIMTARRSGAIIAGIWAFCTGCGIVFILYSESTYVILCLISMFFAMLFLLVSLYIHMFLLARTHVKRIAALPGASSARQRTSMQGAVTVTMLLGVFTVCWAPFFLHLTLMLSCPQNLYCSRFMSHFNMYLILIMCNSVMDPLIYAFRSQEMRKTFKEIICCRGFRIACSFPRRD
T2 sequence (P32245 whole entry): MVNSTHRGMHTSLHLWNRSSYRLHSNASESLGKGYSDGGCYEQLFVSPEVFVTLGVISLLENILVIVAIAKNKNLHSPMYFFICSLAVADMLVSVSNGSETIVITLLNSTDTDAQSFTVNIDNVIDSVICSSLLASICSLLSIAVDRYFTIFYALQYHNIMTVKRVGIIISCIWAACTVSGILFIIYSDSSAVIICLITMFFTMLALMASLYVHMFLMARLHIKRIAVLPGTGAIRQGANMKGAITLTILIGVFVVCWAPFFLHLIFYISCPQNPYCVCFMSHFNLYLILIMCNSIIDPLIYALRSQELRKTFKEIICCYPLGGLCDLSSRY
Melanocortin receptor 3, sequence (P41968 whole entry): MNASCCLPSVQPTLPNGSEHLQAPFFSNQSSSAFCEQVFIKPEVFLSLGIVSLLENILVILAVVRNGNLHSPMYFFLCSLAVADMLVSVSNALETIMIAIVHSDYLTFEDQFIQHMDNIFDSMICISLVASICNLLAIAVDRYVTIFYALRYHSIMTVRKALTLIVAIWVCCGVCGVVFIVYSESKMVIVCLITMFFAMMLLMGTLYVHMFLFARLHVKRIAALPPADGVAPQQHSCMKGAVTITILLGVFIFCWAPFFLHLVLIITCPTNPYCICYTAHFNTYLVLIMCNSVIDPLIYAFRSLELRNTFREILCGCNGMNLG

Structure (SMILES) | Ki (Melanocortin receptor 4 [2]) | EC50 (Melanocortin receptor 4 [3]) | also measured
CC(N[C@H]1CCNC1)c1ccccc1N1CCN(C(=O)[C@@H](Cc2ccc(Cl)cc2)NC(=O)[C@H]2Cc3ccccc3CN2)CC1 (stereo partly drawn) | 13 nM | 12 nM | Ki [1]: 2100 nM; Ki (Melanocortin receptor 3): 3600 nM; Ki (Melanocortin receptor 5): 590 nM
C[C@H]1CN(Cc2ccccc2N2CCN(C(=O)[C@@H](Cc3ccc(Cl)cc3)NC(=O)[C@H]3Cc4ccccc4CN3)CC2)[C@@H](C)CN1 | 19 nM | 18 nM | –
CN(Cc1cccnc1)Cc1ccccc1N1CCN(C(=O)[C@@H](Cc2ccc(Cl)cc2)NC(=O)[C@H]2Cc3ccccc3CN2)CC1 | 77 nM | 94 nM | –
NCc1ccccc1N1CCN(C(=O)[C@@H](Cc2ccc(Cl)cc2)NC(=O)[C@H]2Cc3ccccc3CN2)CC1 | 380 nM | 274 nM | Ki (Melanocortin receptor 5): 2300 nM
CC(NC1CC1)c1ccccc1N1CCN(C(=O)[C@@H](Cc2ccc(Cl)cc2)NC(=O)[C@H]2Cc3ccccc3CN2)CC1 (stereo partly drawn) | 23 nM | 174 nM | –
CC(NCCc1cccs1)c1ccccc1N1CCN(C(=O)[C@@H](Cc2ccc(Cl)cc2)NC(=O)[C@H]2Cc3ccccc3CN2)CC1 (stereo partly drawn) | 24 nM | 577 nM | –
O=C(N[C@H](Cc1ccc(Cl)cc1)C(=O)N1CCN(c2ccccc2CNCCc2cccc(F)c2)CC1)[C@H]1Cc2ccccc2CN1 | 14 nM | 460 nM | –
O=C(N[C@H](Cc1ccc(Cl)cc1)C(=O)N1CCC(Cn2cncn2)(C2CCCCC2)CC1)[C@H]1Cc2ccccc2CN1 | – | – | Ki (Melanocortin receptor 5): 860 nM
CC(NC1CCCNC1)c1ccccc1N1CCN(C(=O)[C@@H](Cc2ccc(Cl)cc2)NC(=O)[C@H]2Cc3ccccc3CN2)CC1 (stereo partly drawn) | 6.4 nM | 3.8 nM | Ki [1]: 1500 nM; Ki (Melanocortin receptor 3): 2000 nM; Ki (Melanocortin receptor 5): 270 nM; EC50 (Melanocortin receptor 4 [4]): 4.7 nM; IA (Melanocortin receptor 4 [5]): 100%
CC(NC1CCC(N)CC1)c1ccccc1N1CCN(C(=O)[C@@H](Cc2ccc(Cl)cc2)NC(=O)[C@H]2Cc3ccccc3CN2)CC1 (stereo partly drawn) | 25 nM | 34 nM | –
O=C(N[C@H](Cc1ccc(Cl)cc1)C(=O)N1CCN(c2ccccc2CNCCc2ccccc2F)CC1)[C@H]1Cc2ccccc2CN1 | 27 nM | 910 nM | Ki (Melanocortin receptor 3): 2300 nM; Ki (Melanocortin receptor 5): 260 nM
COCCN(C)Cc1ccccc1N1CCN(C(=O)[C@@H](Cc2ccc(Cl)cc2)NC(=O)[C@H]2Cc3ccccc3CN2)CC1 | 49 nM | 51 nM | –
O=C(N[C@H](Cc1ccc(Cl)cc1)C(=O)N1CCN(c2ccccc2CNC2CCCC2)CC1)[C@H]1Cc2ccccc2CN1 | 66 nM | 164 nM | –
NCCNCc1ccccc1N1CCN(C(=O)[C@@H](Cc2ccc(Cl)cc2)NC(=O)[C@H]2Cc3ccccc3CN2)CC1 | 127 nM | 91 nM | –
O=C(N[C@H](Cc1ccc(Cl)cc1)C(=O)N1CCN(c2ccccc2CNCCc2cccs2)CC1)[C@H]1Cc2ccccc2CN1 | – | – | Ki [1]: 6000 nM; Ki (Melanocortin receptor 3): 1800 nM; Ki (Melanocortin receptor 5): 240 nM
O=C(N[C@H](Cc1ccc(Cl)cc1)C(=O)N1CCN(c2ccccc2Cn2cncn2)CC1)[C@H]1Cc2ccccc2CN1 | 270 nM | 110 nM | Ki (Melanocortin receptor 5): 1200 nM; inhibition [6]: 36%
O=C(N[C@H](Cc1ccc(Cl)cc1)C(=O)N1CCN(c2ccccc2CNCC2CCNCC2)CC1)[C@H]1Cc2ccccc2CN1 | 102 nM | 208 nM | –

Structure (SMILES) | Ki (Melanocortin receptor 4 [2]) | EC50 (Melanocortin receptor 4 [3]) | also measured
O=C(N[C@H](Cc1ccc(Cl)cc1)C(=O)N1CCN(c2ccccc2CNCCCO)CC1)[C@H]1Cc2ccccc2CN1 | 120 nM | 36 nM | –
CC(NCCc1ccccc1F)c1ccccc1N1CCN(C(=O)[C@@H](Cc2ccc(Cl)cc2)NC(=O)[C@H]2Cc3ccccc3CN2)CC1 (stereo partly drawn) | 33 nM | 2060 nM | –
CN(Cc1ccccc1)Cc1ccccc1N1CCN(C(=O)[C@@H](Cc2ccc(Cl)cc2)NC(=O)[C@H]2Cc3ccccc3CN2)CC1 | 84 nM | 632 nM | –
CC(N[C@H]1CCCCC1N)c1ccccc1N1CCN(C(=O)[C@@H](Cc2ccc(Cl)cc2)NC(=O)[C@H]2Cc3ccccc3CN2)CC1 (stereo partly drawn) | 13 nM | 15 nM | –
CN(CCO)Cc1ccccc1N1CCN(C(=O)[C@@H](Cc2ccc(Cl)cc2)NC(=O)[C@H]2Cc3ccccc3CN2)CC1 | 55 nM | 40 nM | –
CC(NCc1ccco1)c1ccccc1N1CCN(C(=O)[C@@H](Cc2ccc(Cl)cc2)NC(=O)[C@H]2Cc3ccccc3CN2)CC1 (stereo partly drawn) | 12 nM | 138 nM | –
O=C(N[C@H](Cc1ccc(Cl)cc1)C(=O)N1CCN(c2ccccc2CN2CCN(c3ccccc3)CC2)CC1)[C@H]1Cc2ccccc2CN1 | 145 nM | 300 nM | –
CCCC(=O)C1(C2CCCCC2)CCN(C(=O)[C@@H](Cc2ccc(Cl)cc2)NC(=O)[C@@H](Cc2ncc[nH]2)NC(=O)c2ccccc2)CC1 | – | 2.9 nM | –
O=C(N[C@H](Cc1ccc(Cl)cc1)C(=O)N1CCN(c2ccccc2CNCCc2ccc(F)cc2)CC1)[C@H]1Cc2ccccc2CN1 | 81 nM | 487 nM | –
O=C(N[C@H](Cc1ccc(Cl)cc1)C(=O)N1CCN(c2ccccc2CNC2CC2)CC1)[C@H]1Cc2ccccc2CN1 | 90 nM | 253 nM | –
O=C(N[C@H](Cc1ccc(Cl)cc1)C(=O)N1CCN(c2ccccc2CNCc2ccco2)CC1)[C@H]1Cc2ccccc2CN1 | 53 nM | 274 nM | –
CN(CCc1ccccn1)Cc1ccccc1N1CCN(C(=O)[C@@H](Cc2ccc(Cl)cc2)NC(=O)[C@H]2Cc3ccccc3CN2)CC1 | 35 nM | 190 nM | –
CCN(CC)Cc1ccccc1N1CCN(C(=O)[C@@H](Cc2ccc(Cl)cc2)NC(=O)[C@H]2Cc3ccccc3CN2)CC1 | 52 nM | 240 nM | –
O=C(O)CCNCc1ccccc1N1CCN(C(=O)[C@@H](Cc2ccc(Cl)cc2)NC(=O)[C@H]2Cc3ccccc3CN2)CC1 | 490 nM | 90 nM | –
CC(NC1CCCC1)c1ccccc1N1CCN(C(=O)[C@@H](Cc2ccc(Cl)cc2)NC(=O)[C@H]2Cc3ccccc3CN2)CC1 (stereo partly drawn) | 11 nM | 72 nM | –
O=C(N[C@H](Cc1ccc(Cl)cc1)C(=O)N1CCN(c2ccccc2CN2CCC(N3CCCC3)CC2)CC1)[C@H]1Cc2ccccc2CN1 | 24 nM | 146 nM | –
